Reference: EP0729362B1, “TRANSDERMAL COMPOSITION OF N- N- 5- 4-(AMINOIMINOMETHYL)PHENYL]-1-OXOPENTYL]-L-alpha-ASPARTYL]-L-PHENYLALANINE OR ITS ESTERS AND THEIR PHARMACEUTICALLY ACCEPTABLE SALTS” (G.D. SEARLE & CO., priority 1993, dated 1995)

Experiment: transdermal shaved rat model: delivery of tritiated compound from a gel patch, counted in urine and feces
Type: in vivo, Rats
Conditions: 2.5 cm^2 patch
Text: Rats were anesthetized with N2O/O2 and [sequence] fluorocarbon anesthesia using a metering device (Quantifier VMC Anesthesia Machine, Matrix Media Inc.) The rat's back was carefully shaved using an electric razor the day before the transdermal experiment, and no abrasions in the skin surface were apparent.
Compound was applied to the skin using a Hilltop Chamber® transdermal delivery plastic device, in which the compound was contained in a 3% hydroxypropyl cellulose gel. The device was glued in place using cyanomethacrylate (Superbinder 495, Newark Electronics).
The aqueous formulation was 2% in N-[N-[5-[4-(aminoiminomethyl)phenyl]-1-oxopentyl]-L-α-aspartyl]-L-phenylalanine, monohydrochloride (10 mg N-[N-[5-[4-(aminoiminomethyl)phenyl]-1-oxopentyl]-L-α-aspartyl]-L-phenylalanine, monohydrochloride 0.5 ml gel/2.5 cm^2 patch). […] The amount of compound in a sample was calculated from the number of counts detected and the specific radioactivity of the compound in the patch.
Urine and feces were collected daily after patch application as indicated in the Table I. Counts were combined to achieve the total amount delivered. Urine was counted directly by scintillography (Hionic Fluid, Packard Co., Mark III), while feces, were processed by mechanical mixing in saline followed by oxidization of a dried aliquot to tritiated water in an oxidizer (Oxidizer Machine, Packard).

| average amount delivered (urine and feces counts combined for the total amount delivered) | average amount delivered into the urine (amount calculated from [3H] counts) | Molecule |
| --- | --- | --- |
| 4.6 ± 1.9 mg |  | CCOC(=O)C[C@H](NC(=O)CCCCc1ccc(C(=N)N)cc1)C(=O)N[C@@H](Cc1ccccc1)C(=O)OCC [N-[N-[5-[4-(aminoiminomethyl)phenyl]-1-oxopentyl]-L-α-aspartyl]-L-phenylalanine diethyl ester] |
|  | 48 mg | N-[N-[5-[4-(aminoiminomethyl)phenyl]-1-oxopentyl]-L-α-aspartyl]-L-phenylalanine, monohydrochloride |
